Reference: patent US7511123B2, “Immuno-interactive fragments of the alpha-C subunit of inhibin” (Prince Henry's Institute of Medical Research, priority 1999, dated 2009)

Tests used:
As #128 [1] = test: Solid phase assay (Assay 1): biotinylated peptides binding to As #128; design: species or system sheep; key: +++++ major contribution; + minor contribution; details: relative contribution
Description: This assay is a broad screen of the binding of the 31 biotinylated peptides to As #41 and #128 as recommended by Chiron Mimotopes.
The biotinylated peptides were initially bound to streptavidin-coated 96-well plates (2 hours at room temperature), antiserum #41 or #128 was then added (2 hours room temperature) to bind to the peptides. Detection of antiserum binding was assessed by a further incubation with an anti-ovine IgG serum labeled with the enzyme, horseradish peroxidase. The enzyme activity was assessed by conversion of a colorless substrate to a colored product that is detected in a spectrophotometer. The enzyme activity measured was proportional to the extent of the binding of the peptides.

As #128 [2] = test: Competitive 2-site assay (Assay 3), approach (a); format: binding, sheep; design: key: +++++ major contribution; + minor contribution; details: relative contribution
Description: (§1) This assay was developed to establish the relative importance of the individual peptides and peptide pools (identified as epitopes in Assays 1 and 2) in the sandwich antibody format used in the IFMA with As #128 as capture antibody and As #41 as detection antibody. Two approaches (a and b) were considered, Approach (a) explores the cross-reaction of peptides with inhibin for the immobilized As #128 while Approach (b) assesses their cross-reaction with inhibin for As #41.
Approach (a). The biotinylated peptide pools and/or individual peptides at various concentrations, in combination with a fixed concentration of hr-inhibin, were incubated for 2 hours with As #128-coated plates. The plates were then washed to remove any unbound material. Iodinated As #41 was then added to bind to the bound hr-inhibin, the plates washed and the bound radioactivity was measured in a gamma counter. The counts measured were proportional to the amount of hr-inhibin bound to both antisera. The possibility that a peptide contained two epitopes capable of linking As #128 and #41 was assessed in the absence of added hr-inhibin.

As #1989 = test: RIA (Assay 2): competition with iodinated inhibin for As #1989; format: binding, rabbit; details: biotinylated peptides; 50% fall in binding of iodinated inhibin
Description: (§2) This assay was used to determine which peptides compete with iodinated 30 kDa inhibin for As #41, #128 and #1989 (used in the original inhibin RIA, Lapphorn et al., 1989, supra) in a RIA format. This assay identifies those peptides that bind to inhibin-binding antibodies in the antiserum and provides a stricter affinity and specificity assessment in identifying the appropriate epitopes than that found with Assay 1. The competition between peptide and hr-inhibin (used as the standard) was assessed from their ED50 values. The RIA consisted of the competition of iodinated inhibin and either hr-inhibin reference preparation, individual peptides or pools from the 4 peptide regions, with As #41, #128 and in some instances, As #1989. The peptides/inhibin/iodinated inhibin and antisera (at a prescribed dilution) were incubated overnight at 4° C. using standard methodologies. The antibody-bound iodinated inhibin was immunoprecipitated with the addition of an anti-sheep IgG serum raised in goats and the radioactivity was measured in a gamma counter. The concentration of peptide that gives a 50% fall in binding of iodinated inhibin (ED50) was determined and this value was used to give a measure of the affinity of the peptide for the antiserum. This methodology consisted of determining the ED50 of the peptide in the RIA using iodinated human recombinant inhibin as tracer with either As #41, As #128 or As #1989 and graded doses of either hr-inhibin or peptide as described in Example 2.

As #41 [3] = test: RIA (Assay 2): competition with iodinated inhibin for As #41; format: binding, sheep; details: biotinylated peptides; 50% fall in binding of iodinated inhibin
Description: as §2

As #128 [4] = test: RIA (Assay 2): competition with iodinated inhibin for As #128; format: binding, sheep; details: biotinylated peptides; 50% fall in binding of iodinated inhibin
Description: as §2

As #41 [5] = test: Competitive 2-site assay (Assay 3), approach (b); format: binding, sheep; design: key to #41 2-site competitive assay Assay 3: +++++ major contribution; + minor contribution; details: relative contribution
Description: as §1
Approach (b). In this approach, the competition of peptides with the As #41 antiserum using the sandwich antibody format was assessed. Hr-Inhibin was initially incubated with the As #128 coated wells for 1 hour at room temperature. The biotinylated peptide pools and/or individual peptides were incubated together with iodinated As #41 for 1 hour and then added to the inhibin bound As #128 coated plates and incubated for 2 hours at room temperature. Plates were then washed to remove any unbound material and the resulting activity was measured in the gamma counter.

PO#23-R1 = test: Cross-reaction of inhibin-related proteins in 23-R1 ELISA; format: binding, mouse; details: relative to rh inhibin A standard (=100); average of two experiments
Description: (§3) An ELISA system using 96-well microtiter plates was developed consisting of one alpha subunit antibody as coating antibody and an alkaline phosphatase-linked second antibody as label. The alkaline phosphatase activity was amplified using an ELISA amplification kit (Gibco, Life Technologies, Rockville Md., USA). The plate was initially coated with monoclonal antibody at 2 micrograms/well in 0.1 M bicarbonate buffer pH 9.4 overnight at room temperature and blocked with 50 mM TRIS/HCl, 1% bovine serum albumin (BSA) pH 7.4.
(§4) The ELISAs in application to non-serum samples consisted of 100 microliters sample or recombinant human (rh) inhibin A standard (provided by National Institute of Biological Standards and Control, Potters Bar, Herts, UK) in assay buffer (100 mM TRIS/HCl, 154 mM NaCl, 5% Triton-X-100, 10% BSA pH, 7.5) and 100 microliters assay buffer. In the assay of serum, the inhibin A standard (100 microliters) was diluted in assay buffer. Inhibin-free serum (100 microliters) was also added to make a total well volume of 200 microliters. The inhibin-free serum was obtained by incubating serum with an immobilized inhibin alpha subunit antibody. […] Serum samples were initially boiled in the presence of SDS (2% final concentration) and diluted 1:1 with assay buffer before adding 100 microliters to the wells. The inhibin-free serum and the SDS boiling steps were included to offset any potential matrix effects of serum known to affect other inhibin ELISAs although the need for these specific steps had not been assessed.
(§5) The plate was incubated with shaking overnight at room temperature. The wells were washed, and alkaline phosphatase (AP)-linked antibody added, incubated with shaking for 3 hours at room temperature and washed again. The substrate (NADPH, Gibco) was added and the plate incubated for 2 hours with shaking at room temperature. The amplifying enzymes (alcohol dehydrogenase and diaphorase, Gibco) were added and incubated for 5-15 min until appropriate color had developed. The plate was read at 490/630 nm on an ELISA plate reader.
(§6) The specificity of the ELISAs was assessed by determining the cross-reaction of inhibin-related proteins in the various ELISAs.

PO#14-R1 = test: Cross-reaction of inhibin-related proteins in 14-R1 ELISA; format: binding, mouse; details: relative to rh inhibin A standard (=100); average of two experiments
Description: as §3, §4, §5, §6

PO#14 + PO#23-R1 = test: Cross-reaction of inhibin-related proteins in 14 + 23-R1 ELISA; format: binding, mouse; details: relative to rh inhibin A standard (=100); average of two experiments
Description: as §3, §4, §5, §6
As a result of an initial characterization of these ELISAs (see below), a combination of PO#14+PO#23 as coating antibodies and AP linked-R1 antibody as tracer was also assessed and its characteristics are also presented in Table 11 and 12 and FIG. 10c.

Molecule: SGSG GGCGLHIPPNLSLP [Peptide 18]
- #128 Antibody screen Assay 1 (As #128 [1]): +
- #128 2-site competitive assay Assay 3 (As #128 [2]): +
- As#1989 ED50 (As #1989): >2500 nM
- As#41 ED50 (As #41 [3]): 1050 nM
- As#128 ED50 (As #128 [4]): 60 nM

Molecule: SGSG LQRPPEEPAAHANC [Peptide 7]
- #128 Antibody screen Assay 1 (As #128 [1]): +
- #128 2-site competitive assay Assay 3 (As #128 [2]): +
- As#1989 ED50 (As #1989): >2500 nM
- As#41 ED50 (As #41 [3]): 1250 nM
- As#128 ED50 (As #128 [4]): 1600 nM

Molecule: SGSG ETVPNLLTQHCACI [Peptide 33]
- #41 2-site competitive assay Assay 3 (As #41 [5]): +
- As#1989 ED50 (As #1989): >2500 nM
- As#41 ED50 (As #41 [3]): 4000 nM
- As#128 ED50 (As #128 [4]): 2500 nM

Molecule: SGSG LHIPPNLSLPVPGA [Peptide 19]
- #128 Antibody screen Assay 1 (As #128 [1]): +
- #128 2-site competitive assay Assay 3 (As #128 [2]): +
- As#1989 ED50 (As #1989): >2500 nM
- As#41 ED50 (As #41 [3]): 2100 nM
- As#128 ED50 (As #128 [4]): <10 nM

B1: Pro-(alpha)C: preparation provided as standard in Pro-(alpha)C ELISA by Oxford Bio-innovations Ltd, UK (protein)
chain: CQGLELARELVLAKVRALFLDALGPPAVTREGGDPGVRRLPRRHALGGFTHRGSEPEEEEDVSQAILFPATDASCEDKSAARGLAQEAEEGLFRYMFRPSQHTRSRQVTSAQLWFHTGLDRQGTAASNSSEPLLGLLALSPGGPVAVPMSLGHAPPHWAVLHLATSALSLLTHPVLVLLLRCPLCTCSARPEATPFLVAHTRTRPPSGGERARRSTPLMSWPWSPSALRLLQRPPEEPAAHANCHRVALNISFQELGWERWIVYPPSFIFHYCHGGCGLHIPPNLSLPVPGAPPTPAQPYSLLPGAQPCCAALPGTMRPLHVRTTSDGGYSFKYETVPNLLTQHCACI
- 23-R1 ELSIA specificity (PO#23-R1): 41.5
- 14-R1 ELISA specificity (PO#14-R1): 98.5
- 14 + 23-R1 ELISA specificity (PO#14 + PO#23-R1): 38.5

B2: rh-activin A: recombinant human activin A (protein, UniProt P08476 311-426, looked up)
Inhibin beta A chain: GLECDGKVNICCKKQFFVSFKDIGWNDWIIAPSGYHANYCEGECPSHIAGTSGSSLSFHSTVINHYRMRGHSPFANLKSCCVPTKLRPMSMLYYDDGQNIIKKDIQNMIVEECGCS
- 23-R1 ELSIA specificity (PO#23-R1): <0.2
- 14-R1 ELISA specificity (PO#14-R1): <0.2
- 14 + 23-R1 ELISA specificity (PO#14 + PO#23-R1): <0.2

B3: rh-inhibin B: recombinant human inhibin B (protein, UniProt P05111 233-366; P09529 293-407, looked up)
Inhibin alpha chain: STPLMSWPWSPSALRLLQRPPEEPAAHANCHRVALNISFQELGWERWIVYPPSFIFHYCHGGCGLHIPPNLSLPVPGAPPTPAQPYSLLPGAQPCCAALPGTMRPLHVRTTSDGGYSFKYETVPNLLTQHCACI
Inhibin beta B chain: GLECDGRTNLCCRQQFFIDFRLIGWNDWIIAPTGYYGNYCEGSCPAYLAGVPGSASSFHTAVVNQYRMRGLNPGTVNSCCIPTKLSTMSMLYFDDEYNIVKRDVPNMIVEECGCA
- 23-R1 ELSIA specificity (PO#23-R1): 253
- 14-R1 ELISA specificity (PO#14-R1): 320
- 14 + 23-R1 ELISA specificity (PO#14 + PO#23-R1): 138

B4: rh-inhibin A: recombinant human inhibin A standard (protein)
chain 1: STPLMSWPWSPSALRLLQRPPEEPAAHANCHRVALNISFQELGWERWIVYPPSFIFHYCHGGCGLHIPPNLSLPVPGAPPTPAQPYSLLPGAQPCCAALPGTMRPLHVRTTSDGGYSFKYETVPNLLTQHCACI
chain 2: GLECDGKVNICCKKQFFVSFKDIGWNDWIIAPSGYHANYCEGECPSHIAGTSGSSLSFHSTVINHYRMRGHSPFANLKSCCVPTKLRPMSMLYYDDGQNIIKKDIQNMIVEECGCS
- 23-R1 ELSIA specificity (PO#23-R1): 100
- 14-R1 ELISA specificity (PO#14-R1): 100
- 14 + 23-R1 ELISA specificity (PO#14 + PO#23-R1): 100
